Assay results reported in patent publication US10696973B2, “Inducible eukaryotic expression system” (Regeneron Pharmaceuticals, Inc., priority 2002, dated 2020).

Columns and labels:
Format in all cases: cell-based
[1] = target: T1, TetR-ERLBDT2 regulatory fusion protein (UniProt P03372+P04483, G400V/L544A/M543A); experiment: hFcγRI expression regulated by TetR-ERLBDT2 in CHO K1-FcR/pTE313 clones, FITC-hFc staining and flow cytometry; conditions: clone D124 (pool C12); OHT present without Dox
T1 construct: 11 amino acid linker […]; expressed in transfected cells; host or cells: CHO K1-FcR cells (CHO K1 with pTE158) stably transfected with pTE313
T1 sequence (P04483+P03372 fused P03372:G400V/P03372:M543A/P03372:L544A): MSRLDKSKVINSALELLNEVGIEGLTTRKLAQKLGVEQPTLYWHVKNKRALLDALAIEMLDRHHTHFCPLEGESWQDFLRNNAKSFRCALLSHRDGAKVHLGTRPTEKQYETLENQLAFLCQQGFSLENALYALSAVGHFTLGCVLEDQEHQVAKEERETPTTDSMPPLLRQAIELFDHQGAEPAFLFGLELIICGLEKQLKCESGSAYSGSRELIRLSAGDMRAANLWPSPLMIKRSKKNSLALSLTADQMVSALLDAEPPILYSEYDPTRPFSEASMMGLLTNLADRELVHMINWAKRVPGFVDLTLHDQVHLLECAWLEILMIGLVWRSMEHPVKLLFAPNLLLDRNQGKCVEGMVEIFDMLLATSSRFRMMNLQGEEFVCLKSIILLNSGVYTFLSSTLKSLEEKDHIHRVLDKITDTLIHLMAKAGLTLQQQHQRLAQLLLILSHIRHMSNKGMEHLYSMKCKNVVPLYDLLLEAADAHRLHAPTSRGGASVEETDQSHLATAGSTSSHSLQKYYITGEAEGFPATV
Procedure: The cells were placed in the culture medium (10% fetal bovine serum, 90% Ham's F-12, 2 mM L-glutamine; all reagents were from Life Technologies, Rockville, Md.) containing 500 G418 (Life Technologies) for 12 days. […] Briefly, cells grown on 10 cm culture plates were washed once with Dulbecco's phosphate-buffered saline (PBS) without calcium chloride and magnesium chloride (Life Technologies). Two milliliters of 0.25% trypsin (Life Technologies) was added to each plate and incubated at 37° C. for 4-5 min. The plates were swirled until the cells detached from the plate. Four milliliters of culture medium was immediately added to each plate of the detached cells. […] Washed cells capable of binding FITC-hFc were measured by flow cytometry on a MOFLO™ cell sorter (Cytomation; Fort Collins, Colo.). […] The total pool of fluorescent cells from the G418-resistant population was collected by flow cytometry, expanded then analyzed by flow cytometry for expression of hFcγRI. […]
Cells were incubated for three days then stained with FITC-hFc to detect the presence of hFcγRI. The top 60% of hFcγRI-positive cells from the culture induced with 1 μg/ml Dox were isolated to yield pool B 11, and cells with the lowest 30% fluorescence were isolated from cells grown in medium without Dox to yield pool B 12. […]

[2] = target: T2, Arc2-ERLBDT2 fusion protein (Homo sapiens, UniProt P03372, G400V/L544A/M543A); experiment: Time course of 13SC1132 induction in clone C110 after removal of OHT, mean fluorescence of cell surface-displayed protein; conditions: clone C110 grown in 200 nM OHT, then washed; measured 3, 6 and 9 days after removal
T2 construct: expressed in transfected cells; host or cells: CHO K1/pTE534 cells (A2) or RGC12 cells, a CHO K1 derivative (A3), stably transfected with pTE529
T2 sequence (P03372 with tags, fused parts or gaps G400V/M543A/L544A): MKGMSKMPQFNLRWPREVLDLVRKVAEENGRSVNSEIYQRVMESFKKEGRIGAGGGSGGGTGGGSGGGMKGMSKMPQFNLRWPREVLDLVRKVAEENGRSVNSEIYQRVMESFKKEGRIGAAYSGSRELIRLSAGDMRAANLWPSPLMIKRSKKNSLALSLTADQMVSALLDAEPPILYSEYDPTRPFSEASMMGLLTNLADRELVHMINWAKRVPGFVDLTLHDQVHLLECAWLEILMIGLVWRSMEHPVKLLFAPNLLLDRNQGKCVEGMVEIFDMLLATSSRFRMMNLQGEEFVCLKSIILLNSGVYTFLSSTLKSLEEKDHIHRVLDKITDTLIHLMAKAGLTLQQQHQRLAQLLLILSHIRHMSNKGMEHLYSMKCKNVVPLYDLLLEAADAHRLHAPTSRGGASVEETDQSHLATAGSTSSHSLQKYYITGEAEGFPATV
Procedure: RGC12 cells (2×10^6) were transfected with 5 μg pTE529 encoding the Arc-ERLBDT2 protein driven by a ubiquitin promoter (FIG. 9) using Lipofectamine™ as described above. The cells were placed in the culture medium (10% fetal bovine serum, 90% Ham's F-12, 2 mM L-glutamine; all reagents were from lnvitrogen Life Technologies, Carlsbad, Calif.) containing 10 μg/ml puromycin (CalBiochem) for 14 days. Cells resistant to puromycin, expressing the Arc2-ERLBDT2 fusion protein, were then transfected with pTE689 encoding protein of interest […] (FIG. 8) as described above except the culture medium contained 200 nM OHT. […] Cells that secreted the highest levels of 13SC1132 as measured by 13SC1132 complexed with FcγRI on the cell surface (top 5%) were isolated by flow cytometry on a MOFLO™ cell sorter. Cells were grown in the presence of OHT for 7 days, and treated for screening as described above, but the cells with the lowest 5% cell surface fluorescence were isolated in order to enrich for clones with regulated expression of 13SC1132. Cells were then grown in the absence of OHT, treated for flow cytometry, and single cells with the highest 0.1% fluorescence in this population were isolated, expanded, and screened for 13SC1132 expression in the absence of OHT and tight regulation in the presence of OHT. […]

[3] = target: T2, Arc2-ERLBDT2 fusion protein; experiment: hFcγRI expression regulated by Arc2-ERLBDT2 in CHO K1/pTE534 cells transfected with pTE529, FITC-hFc staining and flow cytometry
Procedure: CHO K1 cells (2×10^6) were transfected with pTE534 using Lipofectamine™ as described above. The cells were placed in the culture medium (10% fetal bovine serum, 90% Ham's F-12, 2 mM L-glutamine; all reagents were from Invitrogen Life Technologies, Carlsbad, Calif.) containing 400 μg/ml G418 (Invitrogen Life Technologies) for 12 days. Cells resistant to G418 were trypsinized, pooled, and stained with 2 μg/ml of FITC-conjugated human IgG, Fc fragment (FITC-hFc) as described above. […] Cells that expressed hFcγRI bound FITC-hFc and were isolated based on their fluorescence by flow cytometry on a MOFLO™ cell sorter. Cells with the highest 3% fluorescence in this population were isolated, pooled, and expanded. This hFcγRI-positive pool was enriched by repeating the cell surface staining with FITC-hFc and sorting the top 30% most fluorescent cells in the population to yield pool B. Cells in pool B that were among the top 20% expressing hFcγRI were isolated to yield pool C. Pool C2 (CHOK1/pTE534) was used to generate inducible cell lines regulated by Arc-ERLBDT2.
CHO K1/pTE534 cells (2×10^6/dish) were transfected with either pRG985, an empty vector, or pTE529 using Lipofectamine™. […] The cells were stained with FITC-hFc as described above and analyzed by flow cytometry. […] This pool was expanded in the presence of OHT for 10 days, stained for hFcγRI expression and analyzed by flow cytometry. […]

4-hydroxytamoxifen [OHT]
level of hFcγRI expression [1]: no detectable level of hFcγRI | time after OHT removal until full induction of 13SC1132 expression [2]: 6 days | level of hFcγRI expression ([3]; clone C17, OHT present in the medium): No detectable level of hFcγRI | cells in pool that did not express hFcγRI ([3]; sorted pool expanded in the presence of OHT for 10 days): Over 70%
